A short description of series [1]: Solubility at pH 4.5. It is filed as physicochemical. Conditions: buffer.
A short description of series [2]: Stability in rat liver microsomes after 30 min. As to conditions: read-out: Stability. The class given is ADME, Microsome.
The nature of series [3]: Stability in nude mouse liver microsomes. The class given is ADME, Microsome.
Series [4] can be described thus: Permeability by PAMPA assay. Conditions: read-out: permeability. It is filed as ADME. On the technique in general: In PAMPA a lipid-coated filter parts donor from acceptor wells.
Series [5] has as its target Proto-oncogene tyrosine-protein kinase Src (Homo sapiens, UniProt P12931). The experiment in a line: Inhibition of Src.
In series [6] the target is RAC-alpha serine/threonine-protein kinase (Homo sapiens, UniProt P31749). As to the kind of experiment: Inhibition of AKT.
Chain of RAC-alpha serine/threonine-protein kinase (P31749 whole entry): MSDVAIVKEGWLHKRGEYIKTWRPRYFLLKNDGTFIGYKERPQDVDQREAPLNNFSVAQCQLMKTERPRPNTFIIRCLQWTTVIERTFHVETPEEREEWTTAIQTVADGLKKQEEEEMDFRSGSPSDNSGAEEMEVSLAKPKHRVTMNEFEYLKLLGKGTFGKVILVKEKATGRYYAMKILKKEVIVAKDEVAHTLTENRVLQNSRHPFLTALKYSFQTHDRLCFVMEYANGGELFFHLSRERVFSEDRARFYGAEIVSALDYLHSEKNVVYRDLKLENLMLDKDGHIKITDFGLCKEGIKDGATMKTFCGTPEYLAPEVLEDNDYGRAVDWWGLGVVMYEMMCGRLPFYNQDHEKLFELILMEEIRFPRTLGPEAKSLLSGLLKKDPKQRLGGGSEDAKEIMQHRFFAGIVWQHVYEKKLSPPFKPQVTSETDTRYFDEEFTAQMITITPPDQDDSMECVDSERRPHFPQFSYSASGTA
For series [7], the system named is Mus musculus. The experiment in a line: Toxicity in nude mouse at 150 mg/kg, po. The class given is organism-based. On the set-up: dose 150 mg/kg, route oral. Conditions: in vivo.
The nature of series [8]: Plasma concentration in nude mouse after 24 hrs at 50 mg/kg, po. It is filed as ADME, organism-based. On the set-up: dose 50 mg/kg, route oral.
Series [9] in a line: Plasma concentration in nude mouse after 4 hrs at 50 mg/kg, po. It is filed as ADME, organism-based. On the set-up: dose 50 mg/kg, route oral.
Series [10] deals with T1, 3-phosphoinositide-dependent protein kinase 1 (Homo sapiens, UniProt O15530).
T1 sequence (O15530 whole entry): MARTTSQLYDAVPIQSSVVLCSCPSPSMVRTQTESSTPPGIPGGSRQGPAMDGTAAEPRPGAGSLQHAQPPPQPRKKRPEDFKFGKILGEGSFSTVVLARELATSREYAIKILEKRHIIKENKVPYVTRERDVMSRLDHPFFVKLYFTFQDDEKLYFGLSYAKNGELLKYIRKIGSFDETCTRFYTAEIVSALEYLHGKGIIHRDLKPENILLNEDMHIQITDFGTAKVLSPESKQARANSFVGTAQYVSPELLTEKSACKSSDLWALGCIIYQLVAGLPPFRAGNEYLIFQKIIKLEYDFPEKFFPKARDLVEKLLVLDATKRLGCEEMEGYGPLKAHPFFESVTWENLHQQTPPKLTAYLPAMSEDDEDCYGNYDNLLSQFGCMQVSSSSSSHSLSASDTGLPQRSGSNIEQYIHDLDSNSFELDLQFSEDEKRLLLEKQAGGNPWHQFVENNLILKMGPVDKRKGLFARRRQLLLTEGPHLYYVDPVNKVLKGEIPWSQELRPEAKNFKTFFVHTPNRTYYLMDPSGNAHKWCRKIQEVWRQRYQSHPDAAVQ
As to the kind of experiment: Inhibitory activity against PDK1.

Series [11] is described as follows: Plasma concentration in nude mouse after 8 hrs at 50 mg/kg, po. The class given is ADME, organism-based. On the set-up: dose 50 mg/kg, route oral.
Series [12] addresses Cyclin-dependent kinase 4 (Homo sapiens, UniProt P11802). As to the kind of experiment: Inhibition of CDK4.
Series [13] addresses Epidermal growth factor receptor (Homo sapiens, UniProt P00533). As to the kind of experiment: Inhibitory activity against EGFR.
The target of series [14] is Vascular endothelial growth factor receptor 2 (Homo sapiens, UniProt P35968). The experiment in a line: Inhibition of KDR.
Chain of Vascular endothelial growth factor receptor 2 (P35968 whole entry): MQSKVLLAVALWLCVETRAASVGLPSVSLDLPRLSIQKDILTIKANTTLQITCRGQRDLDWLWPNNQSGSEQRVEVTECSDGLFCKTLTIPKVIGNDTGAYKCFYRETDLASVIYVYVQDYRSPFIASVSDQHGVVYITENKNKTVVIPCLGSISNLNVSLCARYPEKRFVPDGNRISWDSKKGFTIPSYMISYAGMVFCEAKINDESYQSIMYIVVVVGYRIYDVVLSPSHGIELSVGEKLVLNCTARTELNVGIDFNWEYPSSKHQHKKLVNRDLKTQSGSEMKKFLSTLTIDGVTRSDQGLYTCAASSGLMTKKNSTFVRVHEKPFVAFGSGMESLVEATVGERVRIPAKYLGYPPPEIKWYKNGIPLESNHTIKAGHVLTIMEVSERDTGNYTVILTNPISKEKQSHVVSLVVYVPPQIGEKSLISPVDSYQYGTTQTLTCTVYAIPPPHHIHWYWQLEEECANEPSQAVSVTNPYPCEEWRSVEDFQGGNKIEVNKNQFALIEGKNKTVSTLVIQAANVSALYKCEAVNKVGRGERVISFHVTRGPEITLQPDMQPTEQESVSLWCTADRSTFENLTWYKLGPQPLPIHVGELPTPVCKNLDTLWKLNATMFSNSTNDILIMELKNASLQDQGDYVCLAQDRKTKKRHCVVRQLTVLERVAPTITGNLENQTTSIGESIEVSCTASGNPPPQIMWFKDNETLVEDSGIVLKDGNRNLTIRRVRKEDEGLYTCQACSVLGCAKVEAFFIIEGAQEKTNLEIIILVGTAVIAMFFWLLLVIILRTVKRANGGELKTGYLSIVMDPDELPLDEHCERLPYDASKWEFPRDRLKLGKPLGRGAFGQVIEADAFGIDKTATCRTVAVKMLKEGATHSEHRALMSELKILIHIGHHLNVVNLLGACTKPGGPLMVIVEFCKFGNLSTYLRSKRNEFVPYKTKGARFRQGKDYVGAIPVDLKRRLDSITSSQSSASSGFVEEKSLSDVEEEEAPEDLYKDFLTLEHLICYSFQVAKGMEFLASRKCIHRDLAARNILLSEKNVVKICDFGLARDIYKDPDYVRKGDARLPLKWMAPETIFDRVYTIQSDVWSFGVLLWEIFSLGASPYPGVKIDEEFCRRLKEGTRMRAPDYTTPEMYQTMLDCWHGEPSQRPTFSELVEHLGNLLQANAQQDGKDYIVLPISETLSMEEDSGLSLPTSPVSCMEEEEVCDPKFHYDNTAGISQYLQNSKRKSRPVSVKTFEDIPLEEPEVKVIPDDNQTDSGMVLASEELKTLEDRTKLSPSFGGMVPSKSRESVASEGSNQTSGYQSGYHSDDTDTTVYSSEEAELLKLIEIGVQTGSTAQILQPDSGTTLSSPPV
Series [15] concerns HT-29. The experiment in a line: Antitumor activity against HT29 cells xenografted in nude mouse after 21 days at 150 mg/kg, po. The class given is functional, Homo sapiens.

Values after ≈ are worked out from the molar mass of the structure shown. A value given as a limit tells only on which side of the number the result lay.

Chain of Epidermal growth factor receptor (P00533 whole entry): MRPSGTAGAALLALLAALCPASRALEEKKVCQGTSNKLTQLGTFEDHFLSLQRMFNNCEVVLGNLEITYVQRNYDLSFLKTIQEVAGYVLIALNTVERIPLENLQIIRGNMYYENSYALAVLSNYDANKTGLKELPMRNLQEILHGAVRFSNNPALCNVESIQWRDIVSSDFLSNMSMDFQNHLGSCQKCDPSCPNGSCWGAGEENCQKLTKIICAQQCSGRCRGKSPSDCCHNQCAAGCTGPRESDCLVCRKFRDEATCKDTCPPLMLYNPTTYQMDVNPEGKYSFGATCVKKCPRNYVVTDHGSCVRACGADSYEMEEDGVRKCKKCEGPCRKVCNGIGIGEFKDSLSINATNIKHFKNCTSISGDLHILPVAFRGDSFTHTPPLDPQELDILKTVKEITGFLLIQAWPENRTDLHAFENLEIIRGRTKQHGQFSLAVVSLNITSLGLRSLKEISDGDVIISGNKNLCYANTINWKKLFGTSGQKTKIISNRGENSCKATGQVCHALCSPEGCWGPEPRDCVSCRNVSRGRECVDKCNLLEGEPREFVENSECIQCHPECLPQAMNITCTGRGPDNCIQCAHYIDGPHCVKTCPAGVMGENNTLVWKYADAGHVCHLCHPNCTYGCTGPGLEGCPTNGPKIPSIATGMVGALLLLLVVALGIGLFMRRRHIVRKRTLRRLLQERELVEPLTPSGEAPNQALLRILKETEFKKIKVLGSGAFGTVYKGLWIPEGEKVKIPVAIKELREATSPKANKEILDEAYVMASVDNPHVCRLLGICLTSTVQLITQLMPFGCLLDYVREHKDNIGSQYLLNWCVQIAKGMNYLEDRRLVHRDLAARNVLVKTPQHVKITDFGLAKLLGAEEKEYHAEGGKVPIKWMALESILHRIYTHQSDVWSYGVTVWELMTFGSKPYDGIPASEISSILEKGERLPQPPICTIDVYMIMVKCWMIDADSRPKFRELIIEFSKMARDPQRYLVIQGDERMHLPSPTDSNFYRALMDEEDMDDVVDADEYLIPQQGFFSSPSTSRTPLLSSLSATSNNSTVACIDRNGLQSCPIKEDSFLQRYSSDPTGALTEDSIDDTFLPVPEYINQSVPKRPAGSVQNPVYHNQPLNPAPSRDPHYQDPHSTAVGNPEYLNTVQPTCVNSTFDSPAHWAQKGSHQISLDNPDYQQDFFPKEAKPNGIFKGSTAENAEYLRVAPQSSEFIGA
Chain of Proto-oncogene tyrosine-protein kinase Src (P12931 2-536 limits assumed): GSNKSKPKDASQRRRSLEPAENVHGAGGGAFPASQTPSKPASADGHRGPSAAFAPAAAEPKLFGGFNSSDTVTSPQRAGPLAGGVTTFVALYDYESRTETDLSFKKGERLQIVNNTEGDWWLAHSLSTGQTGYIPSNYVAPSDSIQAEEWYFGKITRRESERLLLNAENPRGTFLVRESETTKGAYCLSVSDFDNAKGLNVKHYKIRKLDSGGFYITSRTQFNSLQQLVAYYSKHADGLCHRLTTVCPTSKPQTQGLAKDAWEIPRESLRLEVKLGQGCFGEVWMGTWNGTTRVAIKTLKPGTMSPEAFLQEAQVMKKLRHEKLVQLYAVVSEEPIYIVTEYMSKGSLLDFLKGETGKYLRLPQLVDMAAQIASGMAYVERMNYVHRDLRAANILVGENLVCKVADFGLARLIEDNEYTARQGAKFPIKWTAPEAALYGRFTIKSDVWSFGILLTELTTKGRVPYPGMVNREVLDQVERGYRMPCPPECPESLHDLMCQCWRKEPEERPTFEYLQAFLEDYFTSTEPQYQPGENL
Chain of Cyclin-dependent kinase 4 (P11802 whole entry): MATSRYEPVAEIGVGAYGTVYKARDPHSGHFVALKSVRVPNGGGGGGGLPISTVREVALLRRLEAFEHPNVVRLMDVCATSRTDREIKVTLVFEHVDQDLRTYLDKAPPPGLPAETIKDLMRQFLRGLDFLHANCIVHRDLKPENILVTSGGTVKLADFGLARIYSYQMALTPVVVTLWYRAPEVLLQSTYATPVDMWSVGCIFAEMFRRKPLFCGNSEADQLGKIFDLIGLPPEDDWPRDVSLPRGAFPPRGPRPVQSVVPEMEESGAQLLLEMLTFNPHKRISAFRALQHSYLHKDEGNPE

On to `COc1cc(Nc2c(C#N)cnc3cc(-c4coc(CN5CCN(C)CC5)c4)c(OC)cc23)c(Cl)cc1Cl`, for which the solubility (in general, the dissolved amount per volume that the medium holds) in series [1] came to 63 µg/mL (≈ 114 µM). Moreover, in [2], the remaining at 0.5 h was determined as 72%. Moreover, the half-life (as a rule, how long it takes for the measured level to halve) in series [3] turned out to be 32 min. For the same compound, the Papp in series [4] came out at 2 ×10⁻⁶ cm/s. The IC50 – broadly, the midpoint of a concentration-inhibition curve – in series [5] was 0.78 nM; in series [6] it was over 1000 nM; in series [10], over 1000 nM; in series [12], over 1000 nM; in series [13], 230 nM; in [14] it was over 1000 nM. The Activity result in series [7] was “Non-toxic”; in series [15], 38%. This compound also showed a concentration at 24 h in series [8] of 103 ng/mL. This compound also came in with a concentration at 4 h in [9] of 1140 ng/mL. In series [11], the concentration at 8 h is 1030 ng/mL.

Source of the values: ChEMBL document CHEMBL1138859, “Synthesis and Src kinase inhibitory activity of a series of 4-[(2,4-dichloro-5-methoxyphenyl)amino]-7-furyl-3-quinolinecarbonitriles” (J Med Chem, 2006).
